Measurements as given in patent US20230027361A1, “METTL3 MODULATORS” (priority 2019, published 2023).
Where two headings read alike, the source gives them in different places.

Experiments:
METTL3/METTL14 = METTL3/METTL14 (Homo sapiens, UniProt Q86U44); assay: METTL3-14 Standard Enzyme Assay (METTL3 biochemical assay)
Summary of the method: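 METTL3/METTL14 at 2.5 nM, preincubated 5 min with compound in 20 mM HEPES pH 7.5, 50 mM KCl, 250 μM MgCl2, 1 mM DTT, at ambient temperature. Started with 100 nM 3′-biotinylated RNA and 100 nM ³H-SAM, quenched at 30 min with 15 μM cold SAM. Methylation read by scintillation on streptavidin flashplates.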

METTL16 = target: T1, METTL16 (Homo sapiens, UniProt Q86W50); assay: METTL16 Assay (METTL16 biochemical assay); details: read-out: METTL16 IC50
T1 sequence (Q86W50 1-562): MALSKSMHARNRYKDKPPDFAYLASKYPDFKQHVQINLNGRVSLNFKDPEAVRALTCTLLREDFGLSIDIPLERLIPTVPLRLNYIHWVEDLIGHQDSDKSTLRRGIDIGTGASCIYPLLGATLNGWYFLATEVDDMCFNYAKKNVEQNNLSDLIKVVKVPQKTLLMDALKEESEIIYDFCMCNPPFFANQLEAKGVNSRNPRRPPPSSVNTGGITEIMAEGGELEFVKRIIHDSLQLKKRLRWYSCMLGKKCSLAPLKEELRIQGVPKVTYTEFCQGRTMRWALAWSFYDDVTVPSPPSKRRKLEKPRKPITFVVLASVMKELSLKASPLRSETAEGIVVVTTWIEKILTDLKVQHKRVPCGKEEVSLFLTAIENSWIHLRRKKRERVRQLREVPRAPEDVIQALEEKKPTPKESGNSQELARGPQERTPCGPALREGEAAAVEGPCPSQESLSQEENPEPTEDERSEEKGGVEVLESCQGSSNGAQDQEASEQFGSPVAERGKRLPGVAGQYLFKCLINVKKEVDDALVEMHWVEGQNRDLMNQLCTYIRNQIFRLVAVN
Method: Assays were performed in a 25 μl-volume in 384-well V-bottom polypropylene microplates (Greiner Bio-One, cat. No. 781280) at ambient temperature. Optimized 1× assay buffer was 20 mM HEPES pH 7.5, 50 mM KCl, 1 mM DTT, 0.01% Tween, 0.01% BSG, 0.004 U/μl RNAseOUT (cat. No. 10777019, ThermoFisher Scientific, Waltham, Mass.). For compound screening METTL16 (final concentration, f.c.=100 nM) was added using a Multidrop Combi (ThermoFisher Scientific, Waltham, Mass.) and preincubated for 5 min. Reactions were started by adding 3′ biotinylated RNA ([…]-biotin) (f.c.=50 nM), 3H-SAM (f.c.=200 nM) and non-radiolabeled SAM (f.c.=800 nM) substrates. Reactions proceeded for 20 minutes and were quenched with excess non-radioactive SAM (f.c.=100 μM). The reactions were then transferred to streptavidin-coated flashplates and incubated for 2 hours at 25° C. Following two washing cycles with 0.1% Tween-20, the plates were sealed and read on a TopCount (PerkinElmer, Waltham, Mass.) plate-based scintillation counter. For determination of kinetic parameters, reaction times were optimized so that measurements were taken during the initial velocity phase of the reaction.

PRMT5-MEP50 = PRMT5-MEP50 (Homo sapiens, UniProt O14744); assay: PRMT5 Assay (PRMT5 biochemical assay)
Chain of PRMT5-MEP50 (O14744 whole entry): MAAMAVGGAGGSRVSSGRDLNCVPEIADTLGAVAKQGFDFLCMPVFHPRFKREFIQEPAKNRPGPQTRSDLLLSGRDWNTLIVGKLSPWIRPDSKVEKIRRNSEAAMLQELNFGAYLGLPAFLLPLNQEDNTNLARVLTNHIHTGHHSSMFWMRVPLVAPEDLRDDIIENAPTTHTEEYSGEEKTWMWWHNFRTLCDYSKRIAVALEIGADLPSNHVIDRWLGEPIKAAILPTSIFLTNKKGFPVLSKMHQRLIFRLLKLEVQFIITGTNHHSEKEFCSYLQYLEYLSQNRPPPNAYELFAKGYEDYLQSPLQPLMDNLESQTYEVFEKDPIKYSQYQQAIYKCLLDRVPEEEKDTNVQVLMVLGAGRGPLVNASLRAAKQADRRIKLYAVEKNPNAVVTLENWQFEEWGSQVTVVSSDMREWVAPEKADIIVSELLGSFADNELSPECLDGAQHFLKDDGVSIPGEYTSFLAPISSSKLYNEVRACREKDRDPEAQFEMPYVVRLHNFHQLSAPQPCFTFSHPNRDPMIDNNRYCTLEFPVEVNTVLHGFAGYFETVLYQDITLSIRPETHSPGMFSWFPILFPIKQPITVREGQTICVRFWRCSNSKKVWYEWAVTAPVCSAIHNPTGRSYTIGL
Chain of PRMT5-MEP50 (Q9BQA1 whole entry partner): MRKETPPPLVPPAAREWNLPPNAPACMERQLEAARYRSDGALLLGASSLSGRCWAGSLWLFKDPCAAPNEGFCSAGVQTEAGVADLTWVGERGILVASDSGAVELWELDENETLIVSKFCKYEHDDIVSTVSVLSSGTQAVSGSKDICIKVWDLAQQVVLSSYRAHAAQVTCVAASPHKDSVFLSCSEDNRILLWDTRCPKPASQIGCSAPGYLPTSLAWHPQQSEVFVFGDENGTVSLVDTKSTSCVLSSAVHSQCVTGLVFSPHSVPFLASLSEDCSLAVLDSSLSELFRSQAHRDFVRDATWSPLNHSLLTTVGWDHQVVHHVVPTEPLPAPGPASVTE
Summary of the method: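 PRMT5-MEP50 (2.5 nM final) preincubated 5 min with compound, then reacted 60 min at ambient temperature with 100 nM biotinylated N-acetyl histone H4 peptide and 250 nM 3H-SAM in 20 mM Tris-HCl pH 8.0, 1 mM DTT, 0.01% Tween. Quenched with 15 μM cold SAM; methylated peptide captured on streptavidin flashplates, scintillation counted.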

METTL1/WDR4 = METTL1/WDR4 (Homo sapiens, UniProt Q9UBP6); assay: METTL1 Assay (METTL1 biochemical assay)
Chain of METTL1/WDR4 (Q9UBP6 whole entry, species assumed): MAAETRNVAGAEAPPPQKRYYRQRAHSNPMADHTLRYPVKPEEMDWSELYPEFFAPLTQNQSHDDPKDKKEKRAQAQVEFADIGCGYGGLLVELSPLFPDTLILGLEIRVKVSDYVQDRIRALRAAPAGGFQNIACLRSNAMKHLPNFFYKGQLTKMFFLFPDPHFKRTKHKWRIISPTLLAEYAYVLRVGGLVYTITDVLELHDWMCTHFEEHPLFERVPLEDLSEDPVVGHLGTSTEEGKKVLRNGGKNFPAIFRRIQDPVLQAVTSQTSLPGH
Chain of METTL1/WDR4 (P57081 whole entry partner, species assumed): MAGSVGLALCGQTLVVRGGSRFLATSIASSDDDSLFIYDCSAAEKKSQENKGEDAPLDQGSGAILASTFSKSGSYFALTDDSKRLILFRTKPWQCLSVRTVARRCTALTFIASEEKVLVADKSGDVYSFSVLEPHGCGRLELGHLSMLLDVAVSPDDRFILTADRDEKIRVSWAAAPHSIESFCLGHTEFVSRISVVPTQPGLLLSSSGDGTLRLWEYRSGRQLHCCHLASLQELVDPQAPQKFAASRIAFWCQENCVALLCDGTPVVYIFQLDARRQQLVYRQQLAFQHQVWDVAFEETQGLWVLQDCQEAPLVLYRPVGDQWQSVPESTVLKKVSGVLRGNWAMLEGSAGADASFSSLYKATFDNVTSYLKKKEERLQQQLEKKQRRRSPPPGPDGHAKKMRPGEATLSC
Summary of the method: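 Radiometric methyltransfer by METTL1/WDR4 (6.25 nM f.c., 5 min preincubation) at ambient temperature in HEPES pH 7.5, KCl, MgCl2, DTT; started with 25 nM 3′-biotinylated RNA and 60 nM 3H-SAM, run 20 min, quenched with 15 μM cold SAM. Product captured on streptavidin flashplates (2 h, 25° C), counted by scintillation.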

MOLM-13 cells [1] = assay: MOLM-13 48 Hour Cell Proliferation Assay; format: cell-based; details: Homo sapiens
Method: MOLM-13 (DSMZ) cells were seeded at 1000 cells per well in a volume of 44 μL in a Falcon 384-well tissue culture treated clear bottom microplate in RPMI 1640 media containing 10% fetal bovine serum using a Multidrop Combi (ThermoFisher Scientific). Cells were incubated overnight at 37° C. in a humidified tissue culture incubator. The Mosquito® HTS Liquid Handler was used to make a compound/media intermediate plate by aliquoting 1 μL of compound from the initial compound dilution plate (concentrations ranging from 10.0 mM to 38.0 nM in 100% DMSO) into a V bottom 384-well screen matrix plate containing 49 μL of media containing the appropriate serum (50-fold dilution, 2% DMSO). The Apricot liquid handling system was used to transfer 6.2 μL compounds from the intermediate plate into the Falcon 384-well tissue culture plate containing 44 μL cells (10-point, 4-fold dilution spanning concentrations 25.0 μM to […], 0.25% DMSO final), and placed in a humidified tissue culture incubator at 37° C. After 48 hours, 25 μL of Cell Titer-Glo reagent (Promega) was added to each well using a Multidrop Combi. The plate was protected from light and placed on an IKA plate shaker for at 300 rpm for 10 minutes at room temperature. The plate was read on an EnVision plate reader (Perkin Elmer) using the Ultra Sensitive Luminescence protocol. Data analysis was performed by normalizing the raw luminescence units to an average of the positive control values for staurosporine (100% cell death) and the negative control values for DMSO (0% cell death). An IC50 was calculated using a 4-parameter logistic nonlinear regression model in GraphPad Prism.

MOLM-13 cells [2] = assay: MOLM-13 96 Hour Cell Proliferation Assay; format: cell-based; details: Homo sapiens
Method: MOLM-13 (DSMZ) cells were seeded at 600 cells per well in a volume of 44 μL in a Greiner Bio-One CELLSTAR™ 384 Well Polystyrene Cell Culture clear bottom microplate in RPMI 1640 media containing 10% fetal bovine serum using a Multidrop Combi (ThermoFisher Scientific). Cells were incubated overnight at 37° C. in a humidified tissue culture incubator. To prevent evaporation or to reduce edge effect, add 50 μL or more H2O to an empty plate, cover, and place on top of the cell plates. The Mosquito® HTS Liquid Handler was used to make a compound/media intermediate plate by aliquoting 1 μL of compound from the initial compound dilution plate (concentrations ranging from 10.0 mM to 38.0 nM in 100% DMSO) into Bio-One 384-well polypropylene conical bottom microplate containing 49 μL of media containing the appropriate serum (50-fold dilution, 2% DMSO, compound concentrations ranging from 200.0 μM and […]). The Apricot liquid handling system was used to transfer 6.2 μL compounds from the intermediate plate into the seeding plate containing 44 μL cells (8-fold dilution spanning concentrations 25.0 μM to […], 0.25% DMSO final), and placed in a humidified tissue culture incubator at 37° C. After 96 hours, 25 μL of Cell Titer-Glo reagent (Promega) was added to each well using an Integra liquid handling system. The plate was protected from light using TopSeal-A (Black) film over the entire plate, added White Bottom seal film on the bottom of the entire plate for a better reading on the Envision, and placed on an IKA plate shaker for at 300 rpm for 10 minutes at room temperature. The plate was read on an EnVision plate reader (Perkin Elmer) using the Ultra Sensitive Luminescence protocol. Data analysis was performed by normalizing the raw luminescence units to an average of the positive control values for staurosporine (100% cell death) and the negative control values for DMSO (0% cell death). An IC50 was calculated using a 4-parameter logistic nonlinear regression model in GraphPad Prism.

[3] = read-out: METTL3 IC50, METTL3 biochemical assay
[4] = read-out: PRMT5 IC50, PRMT5 biochemical assay
[5] = METTL3 biochemical assay, read-out: METTL3 IC50
[6] = PRMT5 biochemical assay, read-out: PRMT5 IC50
[7] = read-out: METTL1 IC50; METTL1 biochemical assay

Chain of METTL3/METTL14 (Q86U44 whole entry, species assumed): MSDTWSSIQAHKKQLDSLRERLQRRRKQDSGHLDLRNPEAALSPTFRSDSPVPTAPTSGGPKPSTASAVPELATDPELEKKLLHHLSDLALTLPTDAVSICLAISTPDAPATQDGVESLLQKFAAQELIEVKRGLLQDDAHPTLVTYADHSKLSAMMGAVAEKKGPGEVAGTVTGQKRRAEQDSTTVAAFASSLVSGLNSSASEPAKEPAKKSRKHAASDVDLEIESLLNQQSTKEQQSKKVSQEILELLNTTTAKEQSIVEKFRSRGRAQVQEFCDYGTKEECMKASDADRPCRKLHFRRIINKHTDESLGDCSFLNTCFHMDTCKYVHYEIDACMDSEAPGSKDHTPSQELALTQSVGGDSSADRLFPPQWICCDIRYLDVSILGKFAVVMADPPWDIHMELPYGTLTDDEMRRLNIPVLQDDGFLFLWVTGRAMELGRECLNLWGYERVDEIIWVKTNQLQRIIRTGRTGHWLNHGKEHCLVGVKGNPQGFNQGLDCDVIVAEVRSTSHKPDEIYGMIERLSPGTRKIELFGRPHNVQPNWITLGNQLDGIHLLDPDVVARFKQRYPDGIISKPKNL
Chain of METTL3/METTL14 (Q9HCE5 whole entry partner, species assumed): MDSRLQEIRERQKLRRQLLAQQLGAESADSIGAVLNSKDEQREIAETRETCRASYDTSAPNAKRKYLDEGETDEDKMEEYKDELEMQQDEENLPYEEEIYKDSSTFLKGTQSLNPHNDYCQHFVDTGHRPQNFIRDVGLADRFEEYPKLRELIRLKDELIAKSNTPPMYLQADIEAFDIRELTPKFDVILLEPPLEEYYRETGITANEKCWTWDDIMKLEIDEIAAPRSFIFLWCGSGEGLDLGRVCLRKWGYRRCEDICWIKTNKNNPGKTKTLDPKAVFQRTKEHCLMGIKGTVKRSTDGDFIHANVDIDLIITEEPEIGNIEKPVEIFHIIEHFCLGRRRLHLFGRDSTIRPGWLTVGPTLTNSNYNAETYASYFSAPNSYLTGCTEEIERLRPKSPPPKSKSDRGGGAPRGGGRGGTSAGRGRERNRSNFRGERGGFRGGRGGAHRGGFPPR

Row | SMILES | IC50 (METTL16) [nM] | IC50 (METTL3/METTL14; [5]) [nM] | IC50 (PRMT5-MEP50; [6]) [nM] | IC50 (METTL1/WDR4; [7]) [nM] | also measured
1 | CNc1ccc2ccc(OC[C@H]3O[C@@H](n4cc(-c5cnn(C)c5)c5c(N)ncnc54)[C@@H](F)[C@@H]3O)cc2n1 [I-11] | > 1000 |  |  |  | IC50 (METTL3/METTL14; [3]): 10 to 100 nM; IC50 (PRMT5-MEP50; [4]): 100 to 1000 nM
2 | Nc1cc(C2CC2)nc2cc(OC[C@H]3O[C@@H](n4cc(Br)c5c(N)ncnc54)[C@@H](F)[C@@H]3O)ccc12 [I-14] | > 1000 | 10 to 100 | 100 to 1000 |  | 
3 | Cc1cc(N)c2ccc(OC[C@H]3O[C@@H](n4cc(C5CCCC5)c5c(N)ncnc54)[C@H](O)[C@@H]3O)cc2n1 [I-16] | > 1000 | 10 to 100 | 10 to 100 |  | 
4 | CNc1ccc2ccc(OC[C@H]3O[C@@H](n4cc(C5CCN(C)C5)c5c(N)ncnc54)[C@@H](F)[C@@H]3O)cc2n1 (stereo partly drawn) [I-17] | > 1000 | 10 to 100 | 100 to 1000 |  | 
5 | CCc1cc(N)c2ccc(OC[C@H]3O[C@@H](n4cc(Br)c5c(N)ncnc54)[C@@H](F)[C@@H]3O)cc2n1 [I-18] | > 1000 | 10 to 100 | 100 to 1000 |  | 
6 | Nc1nc2ccc(OC[C@H]3O[C@@H](n4cc(Br)c5c(N)ncnc54)[C@@H](F)[C@@H]3O)cc2[nH]1 [I-21] | > 1000 | 100 to 1000 | 10 to 100 | > 1000 | 
7 | CNc1ccc2ccc(OC[C@H]3O[C@@H](n4cc(C5CCN(C)CC5)c5c(N)ncnc54)[C@@H](F)[C@@H]3O)cc2n1 [I-24] | > 1000 | 10 to 100 | 100 to 1000 | > 1000 | 
8 | CNc1ccc2ccc(OC[C@H]3O[C@@H](n4cc(Br)c5c(N)nc(N)nc54)[C@@H](F)[C@@H]3O)cc2n1 [I-25] | > 1000 | 100 to 1000 | 10 to 100 | > 1000 | 
9 | Cn1ccnc1-c1ccc2ccc(OC[C@H]3O[C@@H](n4cc(Br)c5c(N)ncnc54)[C@@H](F)[C@@H]3O)cc2n1 [I-26] | > 1000 | > 1000 | 100 to 1000 | > 1000 | 
10 | Cc1cc(N)c2ccc(OC[C@H]3O[C@@H](n4cc(Br)c5c(N)ncnc54)[C@@H](F)[C@@H]3O)cc2n1 [I-27] | > 1000 | 10 to 100 | 100 to 1000 |  | 
11 | CN(C)Cc1cccc(OC[C@H]2O[C@@H](n3cc(Br)c4c(N)ncnc43)[C@@H](F)[C@@H]2O)c1 [I-31] | > 1000 | > 1000 | 100 to 1000 | > 1000 | 
12 | CNc1ccc2ccc(OC[C@H]3O[C@@H](n4cc(C5=CCNC5)c5c(N)ncnc54)[C@@H](F)[C@@H]3O)cc2n1 [I-32] | > 1000 | 10 to 100 | 100 to 1000 | > 1000 | 
13 | CNc1ccc2ccc(OC[C@H]3O[C@@H](n4cc(C5=CCN(C)CC5)c5c(N)ncnc54)[C@@H](F)[C@@H]3O)cc2n1 [I-35] | > 1000 | 10 to 100 | 100 to 1000 | > 1000 | 
14 | CNc1ccc2ccc(OC[C@H]3O[C@@H](n4cc(-c5ccnn5C)c5c(N)ncnc54)[C@@H](F)[C@@H]3O)cc2n1 [I-37] | > 1000 |  |  |  | IC50 (METTL3/METTL14; [3]): 10 to 100 nM; IC50 (METTL1/WDR4; METTL1 biochemical assay; read-out: METTL1 IC50): > 1000 nM; IC50 (PRMT5-MEP50; [4]): 100 to 1000 nM
15 | Nc1ccc2ccc(CC[C@H]3C[C@@H](n4cc(C5CCCC5)c5c(N)ncnc54)[C@H](O)[C@@H]3O)cc2n1 [I-60] |  | 10 to 100 | < 10 | > 1000 | IC50 (MOLM-13 cells [1]): 1 to 10 µM; IC50 (MOLM-13 cells [2]; MOLM-13, 96 h): < 1000 nM
16 | CCNc1ccc2ccc(OC[C@H]3C[C@@H](n4ccc5c(N)ncnc54)[C@H](O)[C@@H]3O)cc2n1 [I-81] | > 1000 | 10 to 100 | < 10 |  | 
17 | CCNc1ccc2ccc(CC[C@H]3O[C@@H](n4ccc5c(N)ncnc54)[C@H](O)[C@@H]3O)cc2n1 [I-90] | > 1000 | 10 to 100 | < 10 |  | 
18 | CNc1ccc2ccc(CC[C@H]3C[C@@H](n4ccc5c(N)ncnc54)[C@H](O)[C@@H]3O)cc2n1 [I-123] |  | < 10 | < 10 | > 1000 | IC50 (MOLM-13 cells [1]): > 10 µM; IC50 (MOLM-13 cells [2]; MOLM-13, 96 h): < 1000 nM
19 | Nc1ncnc2c1ccn2[C@H]1C[C@H](O)[C@@H](COc2ccc3ccc(NC4CC4)nc3c2)O1 [I-180] |  | 10 to 100 | 100 to 1000 |  | IC50 (MOLM-13 cells [1]): > 10 µM; IC50 (MOLM-13 cells [2]; MOLM-13, 96 h): > 10000 nM
20 | Cn1ccc(-c2cn([C@@H]3O[C@H](COc4ccc5ccc(N6CC(N)C6)nc5c4)[C@@H](O)[C@@H]3F)c3ncnc(N)c23)n1 [I-181] |  |  |  |  | IC50 (METTL3/METTL14): < 10 nM; IC50 (PRMT5-MEP50): > 1000 nM; IC50 (MOLM-13 cells [1]): < 1 µM; IC50 (MOLM-13 cells [2]): < 1000 nM
21 | Nc1ncnc2c1c(-n1ccc(C(F)(F)F)n1)cn2[C@@H]1O[C@H](COc2ccc3ccc(N4CCC4)nc3c2)[C@@H](O)[C@@H]1F [I-221] |  |  |  |  | IC50 (METTL3/METTL14): < 10 nM; IC50 (PRMT5-MEP50): > 1000 nM; IC50 (MOLM-13 cells [1]): 1 to 10 µM; IC50 (MOLM-13 cells [2]): 1000 to 10000 nM
